Laboratory results from US8420345B2, “Method for identifying at least two groups of microorganisms” (Biomerieux, priority 2006, dated 2013).

Legend:
[1] = test system: the other serotypes (salmonella); assay: Example 3: esterase substrate preference, conclusion from table 4; type: cell-based; settings: coloration intensities being stronger for this substrate
Description: (§1) The media thus constituted were distributed into Petri dishes.
(§2) Various salmonella serotypes were inoculated, using a 10 μl calibrated loop, onto each medium, using calibrated suspensions of 0.5 McFarland. All the cultures were incubated for 24 h at 37° C.
(§3) The growth and coloration results obtained at 24 h of incubation are given in table 3, in which G signifies growth, C signifies color, I signifies colorless, In signifies coloration intensity, the sign ++ signifies very good growth, the sign + signifies good growth of the strain, the sign +/− signifies moderate growth of the strain and the sign − signifies lack of growth of the strain. 1 corresponds to a weak coloration intensity, 2 corresponds to moderate and 3 corresponds to strong.
As a result of this, a medium containing these two substrates of the same enzymatic activity makes it possible to obtain colored colonies for the various salmonella serotypes, and to separate the Dublin serotype from the other salmonella serotypes and from bacteria not expressing esterase.

[2] = test system: S. enteritidis serotype Dublin; assay: Example 3: colony color, coloration intensity and growth on Columbia agar with esterase substrates; type: cell-based; settings: X—C8 versus Magenta-C8
Description: as §1, §2, §3

| Compound | preferential hydrolysis by esterase activity [1] | specificity of hydrolysis by esterase activity [2] |
| --- | --- | --- |
| CCCCCCCC(=O)Oc1c[nH]c2cc(Cl)c(Br)cc12 [Magenta-C8, 5-Bromo-6-Chloro-3-Indoxyl Octanoate] | preferentially hydrolyze Magenta-C8 | – |
| CCCCCCCC(=O)Oc1c[nH]c2ccc(Br)c(Cl)c12 [X—C8, 5-Bromo-4-Chloro-3-Indoxyl Octanoate] | – | hydrolyzes X—C8 more specifically than Magenta-C8 |
